Laboratory results as given in patent US20160262390A1, “FIELD APPLICATION OF SUGARS TO INCREASE CROP YIELD” (Minn-Dak Farmers Cooperative, priority 2015, published 2016).

Key:
[1] = tested on: sugarbeets; assay: Pre-planting sugar application on sugarbeets, Hickson; type: in vivo, sugarbeet; details: for Recoverable Sugar Yield / Recoverable Sugar Yield Increase Compared to Check Average / Sugarbeet Yield: ND
Description: (§1) The field trials were conducted simultaneously in two different planting locations for each of the crops. One location was near the community of Foxhome in Wilkin County, Minnesota (hereafter referred to as “Foxhome”) while the second location was near the community of Hickson in Cass County, North Dakota (hereafter referred to as “Hickson”). The Foxhome and Hickson locations are on opposite sides of the Red River along the border of Minnesota and North Dakota and separated by a distance exceeding 40 miles. Generally, the Foxhome location has heavier clay loam soil conditions while Hickson has sandy loam soil conditions.
(§2) At each of the Foxhome and Hickson locations, a total of thirty two (32) treatments were conducted for each crop (sugarbeets, soybeans, corn, wheat). Each treatment was replicated four times arranged in a Randomized Complete Block (RCB) Design in the same field. Each replication consisted of a plot measuring twenty five (25) feet in length and eleven (11) feet in width. In selecting the particular seed types for evaluation, popular commercial varieties to the region were utilized. For the row crops (sugarbeets, soybeans, corn) each replication included a width of six (6) rows with twenty two (22) inch row spacing and having a row length of twenty five (25) feet. The wheat was planted in accordance with standard commercial practices. To reduce/eliminate any treatment impacts between adjacent plots for the crops, only the four (4) interior rows of each plot were treated and evaluated for row crops, while for wheat, only the interior 7.33 feet of each plot were treated and evaluated. With the exception of the treatment program applied to the individual plots, which will be discussed below, conventional commercial growing practices for each planting location were otherwise followed during the field trials. While the individual plots at the same location, Hickson or Foxhome, experienced essentially the same growing conditions throughout the season, there were various differences associated with localized precipitation, general growing conditions, soil classification and the like, which contributed to performance differences between the Hickson and Foxhome locations.
(§3) The treatment regimen at each location for each of the tested crops included two (2) untreated treatments (Treatments 31 and 32) in which no sugar was applied and constitute the control elements. […] Six (6) treatments (Treatments 13-18) included the liquid application of high fructose corn syrup (hereafter “HFCS”) at varying rates. Six treatments (Treatments 19-24) included the liquid application of dextrose (hereafter “LIQDEX”) at varying rates. Six (6) treatments (Treatments 25-30) included the application of powdered cellulose (hereafter “POWCEL”) at varying rates. For the sugar applied in a solid form, granulated or powdered, field application was conducted via conventional broadcast spreading. For the sugar applied in a liquid form, a liquid concentrate was mixed and diluted with water in a tank and a conventional sprayer was configured such that the liquid was sprayed so as to have the same sugar equivalent (measured in pounds/per acre) as the sugar in solid form. Regardless of whether the sugar was applied as a solid or liquid, the sugar was applied directly onto the soil before spring tillage, lightly worked into the ground and followed by planting of the crop seed in the treated ground. A summary of application rates for each plot treatments are contained in Table 7 below and were used consistently with each of the crops (sugarbeets, soybeans, corn, wheat).
To test the impact of pre-planting application rates and sugar source on sugarbeets, identical field trials using Crystal® brand ACH 260 sugarbeet seed were conducted at the Foxhome and Hickson locations. Planting of the sugarbeet seed and harvest of the sugarbeets were conducted on as close to the same dates as practical so as to have essentially the same length growing season. […]

[2] = tested on: microflora that are present in the soil; assay: Solvita Soil CO2-Burst test of pre-emergent soil samples, soybean trial in Hickson
Description: In an attempt to quantify this boost, soil samples were taken during some of the previously discussed trials. These samples were tested using a standard Solvita Soil CO2-Burst Test Kit to generate measurements associated with CO2 respiration which can be used as an indicator of active soil carbon, soil microbial biomass and the potential for nutrient release beneficial to crop production. Generally, the higher the measured levels of CO2, the more advantageous the soil is for crop production.
The results of the CO2-Burst Testing are summarized in Table 17 below (using the replication designations from Table 7): […]

[3] = tested on: wheat; assay: Pre-planting sugar application on wheat, Foxhome; type: in vivo; details: for Yield / Yield Increase Compared to Check Average: MN
Description: as §1, §2, §3
(§4) To test the impact of pre-planting application rates and sugar source on wheat, identical field trials using Westbred Mayville wheat seed were conducted at the Foxhome and Hickson locations. Planting of the wheat seed and harvest of the wheat were conducted on the same dates so as to have essentially the same growing season. […]

[4] = tested on: corn; assay: Pre-planting sugar application on corn, Hickson; type: in vivo; details: for Yield / Yield Increase Compared to Check Average: ND
Description: as §1, §2, §3
To test the impact of pre-planting application rates and sugar source on corn, identical field trials using Peterson Farms brand corn seed were conducted at the Foxhome and Hickson locations. Planting of the corn seed and harvest of the corn were conducted on the same dates so as to have essentially the same growing season. […]

[5] = tested on: wheat; assay: Pre-planting sugar application on wheat, Hickson; type: in vivo; details: for Yield / Yield Increase Compared to Check: ND
Description: as §1, §2, §3, §4

[6] = six rates (25-250 pounds/Acre) per sugar, thirty in all

SMILES: OC[C@H]1O[C@@](CO)(O[C@H]2O[C@H](CO)[C@@H](O)[C@H](O)[C@H]2O)[C@@H](O)[C@@H]1O [GS, sucrose]
- Recoverable Sugar Yield ([1]; pre-planting 25 pounds/Acre): 9560 Pounds/Acre
- Recoverable Sugar Yield Increase Compared to Check Average ([1]; pre-planting 25 pounds/Acre): −2.54%
- Sugarbeet Yield ([1]; pre-planting 25 pounds/Acre): 32.73 Tons/Acre
- Recoverable Sugar Yield ([1]; pre-planting 50 pounds/Acre): 10509 Pounds/Acre
- Recoverable Sugar Yield Increase Compared to Check Average ([1]; pre-planting 50 pounds/Acre): 7.14%
- Sugarbeet Yield ([1]; pre-planting 50 pounds/Acre): 35.37 Tons/Acre
- Recoverable Sugar Yield ([1]; pre-planting 100 pounds/Acre): 9360 Pounds/Acre
- Recoverable Sugar Yield Increase Compared to Check Average ([1]; pre-planting 100 pounds/Acre): −4.58%
- Sugarbeet Yield ([1]; pre-planting 100 pounds/Acre): 31.94 Tons/Acre
- Recoverable Sugar Yield ([1]; pre-planting 150 pounds/Acre): 9877 Pounds/Acre
- Recoverable Sugar Yield Increase Compared to Check Average ([1]; pre-planting 150 pounds/Acre): 0.69%
- Sugarbeet Yield ([1]; pre-planting 150 pounds/Acre): 32.34 Tons/Acre
- Recoverable Sugar Yield ([1]; pre-planting 200 pounds/Acre): 9426 Pounds/Acre
- Recoverable Sugar Yield Increase Compared to Check Average ([1]; pre-planting 200 pounds/Acre): −3.90%
- Sugarbeet Yield ([1]; pre-planting 200 pounds/Acre): 31.37 Tons/Acre
- Recoverable Sugar Yield ([1]; pre-planting 250 pounds/Acre): 9587 Pounds/Acre
- Recoverable Sugar Yield Increase Compared to Check Average ([1]; pre-planting 250 pounds/Acre): −2.26%
- Sugarbeet Yield ([1]; pre-planting 250 pounds/Acre): 30.7 Tons/Acre
- number of treatments showing negative yield benefits compared to check average ([1]; six rates per sugar): four of the six
- CO2 Burst ppm ([2]; sugar amount 50 pounds/acre): 63 ppm
- CO2 Increase as Compared to Check Average ([2]; sugar amount 50 pounds/acre): 38.46%
- CO2 Burst ppm ([2]; sugar amount 150 pounds/acre): 75 ppm
- CO2 Increase as Compared to Check Average ([2]; sugar amount 150 pounds/acre): 64.84%
- CO2 Burst ppm ([2]; sugar amount 250 pounds/acre): 53 ppm
- CO2 Increase as Compared to Check Average ([2]; sugar amount 250 pounds/acre): 16.48%
- Yield ([3]; pre-planting 25 pounds/Acre): 73.58 Bushels/Acre
- Yield Increase Compared to Check Average ([3]; pre-planting 25 pounds/Acre): 13.55%
- Yield ([3]; pre-planting 50 pounds/Acre): 70.01 Bushels/Acre
- Yield Increase Compared to Check Average ([3]; pre-planting 50 pounds/Acre): 8.04%
- Yield ([3]; pre-planting 100 pounds/Acre): 59.45 Bushels/Acre
- Yield Increase Compared to Check Average ([3]; pre-planting 100 pounds/Acre): −8.26%
- Yield ([3]; pre-planting 150 pounds/Acre): 66.65 Bushels/Acre
- Yield Increase Compared to Check Average ([3]; pre-planting 150 pounds/Acre): 2.85%
- Yield ([3]; pre-planting 200 pounds/Acre): 59.64 Bushels/Acre
- Yield Increase Compared to Check Average ([3]; pre-planting 200 pounds/Acre): −7.96%
- Yield ([3]; pre-planting 250 pounds/Acre): 59.73 Bushels/Acre
- Yield Increase Compared to Check Average ([3]; pre-planting 250 pounds/Acre): −7.82%
- number of treatments showing yield improvement compared to check average [3, 6]: three of the six
- Yield ([4]; pre-planting 25 pounds/Acre): 188.56 Bushels/Acre
- Yield Increase Compared to Check Average ([4]; pre-planting 25 pounds/Acre): 22.03%
- Yield ([4]; pre-planting 50 pounds/Acre): 153.24 Bushels/Acre
- Yield Increase Compared to Check Average ([4]; pre-planting 50 pounds/Acre): −0.83%
- Yield ([4]; pre-planting 100 pounds/Acre): 165.78 Bushels/Acre
- Yield Increase Compared to Check Average ([4]; pre-planting 100 pounds/Acre): 7.29%
- Yield ([4]; pre-planting 150 pounds/Acre): 161.20 Bushels/Acre
- Yield Increase Compared to Check Average ([4]; pre-planting 150 pounds/Acre): 4.32%
- Yield ([4]; pre-planting 200 pounds/Acre): 163.58 Bushels/Acre
- Yield Increase Compared to Check Average ([4]; pre-planting 200 pounds/Acre): 5.86%
- Yield ([4]; pre-planting 250 pounds/Acre): 156.06 Bushels/Acre
- Yield Increase Compared to Check Average ([4]; pre-planting 250 pounds/Acre): 1.00%
- number of treatments showing yield improvement compared to check average [4, 6]: five of the six
- Yield ([5]; pre-planting 25 pounds/Acre): 51.82 Bushels/Acre
- Yield Increase Compared to Check ([5]; pre-planting 25 pounds/Acre): 5.45%
- Yield ([5]; pre-planting 50 pounds/Acre): 52.47 Bushels/Acre
- Yield Increase Compared to Check ([5]; pre-planting 50 pounds/Acre): 6.78%
- Yield ([5]; pre-planting 100 pounds/Acre): 49.94 Bushels/Acre
- Yield Increase Compared to Check ([5]; pre-planting 100 pounds/Acre): 1.63%
- Yield ([5]; pre-planting 150 pounds/Acre): 44.54 Bushels/Acre
- Yield Increase Compared to Check ([5]; pre-planting 150 pounds/Acre): −9.36%
- Yield ([5]; pre-planting 200 pounds/Acre): 50.25 Bushels/Acre
- Yield Increase Compared to Check ([5]; pre-planting 200 pounds/Acre): 2.26%
- Yield ([5]; pre-planting 250 pounds/Acre): 50.40 Bushels/Acre
- Yield Increase Compared to Check ([5]; pre-planting 250 pounds/Acre): 2.56%
- number of treatments showing yield improvement compared to check average [5, 6]: five of the six
